# Source: article PMC3985417 (Journal of Medicinal Chemistry, 2014)
# Test: in vitro
# Details: human, HEK293 cell homogenate
compound,measurement,value
CN(C)CCCN1c2ccccc2CCc2ccccc21 [Imipramine],fraction unbound at 4 h,0.59 ± 0.013
